# What was measured:
# [1] = Phase 1 pharmacokinetic evaluation of nalmefene IN with and without Intravail vs IM injection
# [2] = Safety and tolerability of IN nalmefene, adverse events (Example 13); assay type: in vivo, human (healthy volunteers)
# Description: Safety: The Investigator evaluated safety using the following assessments: reported or observed AEs, clinical laboratory evaluations, vital sign measurements, physical examinations, ECGs (including telemetry), nasal irritation determined from nasal passage examinations, and NRS to determine acute nasal pain.
# [3] = Treatment B (6 mg, 1 spray in each nostril)
# [4] = Treatment C (6 mg, 2 sprays in 1 nostril)
smiles,measurement,setting,value
"C=C1CC[C@@]2(O)[C@H]3Cc4ccc(O)c5c4[C@@]2(CCN3CC2CC2)[C@H]1O5 [Nalmefene, 17-cyclopropylmethyl-4,5α-epoxy-6-methylenemorphinan-3,14-diol]","AUCextrap, mean",[1]; 1.5 mg IM,22.6%
same,"Cmax/D, mean",[1]; 1.5 mg IM,1.12 ng/mL/mg
same,"Lambda z, mean",[1]; 1.5 mg IM,0.094 h⁻¹
same,"AUCextrap, mean",[1]; 1.5 mg IN,30.6%
same,"Cmax/D, mean",[1]; 1.5 mg IN,0.646 ng/mL/mg
same,"Half-life, mean",[1]; 1.5 mg IN,6.74 h
same,"Lambda z, mean",[1]; 1.5 mg IN,0.131 h⁻¹
same,"AUCextrap, mean",[1]; 3 mg IN,17.9%
same,"Cmax/D, mean",[1]; 3 mg IN,0.731 ng/mL/mg
same,"Lambda z, mean",[1]; 3 mg IN,0.101 h⁻¹
same,"AUCextrap, mean",[1]; 3 mg plus […] Intravail IN,14.6%
same,"Cmax/D, mean",[1]; 3 mg plus […] Intravail IN,1.65 ng/mL/mg
same,"Lambda z, mean",[1]; 3 mg plus […] Intravail IN,0.117 h⁻¹
same,concentration at 0 h,"[1]; human, in vivo, 1.5 mg",0 ng/mL
same,concentration at 0.04 h,"[1]; human, in vivo, 1.5 mg",0 ng/mL
same,concentration at 0.08 h,"[1]; human, in vivo, 1.5 mg",0 ng/mL
same,concentration at 30 h,"[1]; human, in vivo, 1.5 mg",0 ng/mL
same,concentration at 36 h,"[1]; human, in vivo, 1.5 mg",0 ng/mL
same,concentration at 48 h,"[1]; human, in vivo, 1.5 mg",0 ng/mL
same,concentration at 60 h,"[1]; human, in vivo, 1.5 mg",0 ng/mL
same,concentration at 72 h,"[1]; human, in vivo, 1.5 mg",0 ng/mL
same,concentration at 0 h,"[1]; human, in vivo, 3 mg",0 ng/mL
same,concentration at 0.04 h,"[1]; human, in vivo, 3 mg",0 ng/mL
same,concentration at 0.08 h,"[1]; human, in vivo, 3 mg",0 ng/mL
same,concentration at 48 h,"[1]; human, in vivo, 3 mg",0 ng/mL
same,concentration at 60 h,"[1]; human, in vivo, 3 mg",0 ng/mL
same,concentration at 72 h,"[1]; human, in vivo, 3 mg",0 ng/mL
same,Tolerability,"[2]; 3 mg and 6 mg dose, fasted healthy subjects",well-tolerated
same,"Nasal congestion, instances",[2]; Treatment A,1
same,"Nasal discomfort, instances",[2]; Treatment A,1
same,"Nausea, instances",[2]; Treatment A,1
same,Number of AEs reported,[2]; Treatment A (3 mg),20
same,Subjects reporting AEs,[2]; Treatment A (3 mg),43.5%
same,"Nasal congestion, instances",[2]; Treatment B,2
same,"Nausea, instances",[2]; Treatment B,5
same,Number of AEs reported,[2]; [3],24
same,Subjects reporting AEs,[2]; [3],60.9%
same,"Nasal congestion, instances",[2]; Treatment C,4
same,"Nasal discomfort, instances",[2]; Treatment C,3
same,"Nausea, instances",[2]; Treatment C,1
same,Number of AEs reported,[2]; [4],24
same,Subjects reporting AEs,[2]; [4],58.3%
same,Serious AEs or AEs leading to withdrawal or death,[2]; all treatments,no serious AEs
same,Severity of TEAEs,[2]; all treatments,mild

# Source: US12290596B2, “Compositions and methods for the treatment of opioid overdose” (priority 2021, dated 2025)
